These results are taken from patent publication US11993574B2, “Pyrazole and imidazole compounds for inhibition of IL-17 and RORgamma” (REATA PHARMACEUTICALS, INC., priority 2018, dated 2024).

Holding throughout (type): cell-based
Assay [1] concerns the target T1, Human RAR-related Orphan Receptor Gamma (RORγ) (Homo sapiens, UniProt P51449).
T1 sequence (P51449 269-508 limits assumed): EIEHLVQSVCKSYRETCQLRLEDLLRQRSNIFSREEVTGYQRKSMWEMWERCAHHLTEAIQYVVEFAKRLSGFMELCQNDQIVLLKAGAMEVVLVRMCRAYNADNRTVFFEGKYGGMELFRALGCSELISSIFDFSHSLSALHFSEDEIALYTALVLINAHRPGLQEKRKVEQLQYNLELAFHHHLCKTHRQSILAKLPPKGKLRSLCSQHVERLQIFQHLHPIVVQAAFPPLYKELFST
Nature of the assay: RORγ assay (GAL4-RORγ hybrid luciferase reporter, Indigo Biosciences). Particulars: inverse-agonist activity, GAL4-RORγ reporter cells, 23 hours. From the text:
B. RORγ Assay and Cell Viability
The RORγ assay system was purchased from Indigo Biosciences. This nuclear receptor assay utilizes a human cell line that has been engineered to express a hybrid form of the Human RAR-related Orphan Receptor Gamma (RORγ) at high levels. The N-terminal DNA binding domain (DBD) of the native RORγ receptor was substituted with the yeast GAL4-DBD to generate the GAL4-RORγ hybrid nuclear receptor. The reporter cell line is transfected with a plasmid that encodes the beetle luciferase gene under the control of the GAL4 upstream activating sequence (UAS). GAL4 binds to the UAS and increases transcription of downstream target genes. The GAL4-RORγ hybrid is constitutively active; therefore, the principle application of this reporter assay system is to screen test compounds to quantify inverse-agonist activities against human RORγ. Because the ligand binding domain (LBD) of RORγ is identical to the LBD of RORγt, this assay is an accurate surrogate for evaluating activity of experimental ligands against RORγt. To assess the RORγ inverse-agonist activity of the test compounds, reporter cells were plated in white 96-well plates in triplicate and were treated with DMSO (vehicle) or test compound (concentration ranges of 7.8-2000 nM) at 37° C. with 5% CO2 in a humidified atmosphere for 23 hours. After this incubation, luciferin was added to the wells and luciferase activity was determined by measuring the luminescence signal using a BMG Pherastar microplate reader. Viability was determined using the Live Cell Multiplex Assay (Indigo Biosciences). Values from test compound samples were normalized to those from DMSO-treated samples. Data were analyzed using GraphPad Prism version 6.00 for Windows (GraphPad Software, La Jolla Calif. USA). A non-linear regression analysis with log (inhibitor) vs. normalized response using a variable slope was applied to fit the data and determine the IC50 values for inhibition of RORγ and cell viability. Inhibition that is closely correlated with reduced viability is considered to be non-specific.
In general terms: In a reporter assay the amount or activity of a reporter protein is the signal.

Assay [2] relates to IL-17A. Description: IL-17 release from differentiated primary human T-cells (IL-17A HTRF assay). To be noted: primary human CD4+ T cells differentiated into Th17 cells, 45-hour incubation, IL-17A in supernatant; read-out: hIL17 IC50. As to the method:
C. IL-17 Release from Differentiated Primary Human T-Cells and Cell Viability
Primary human cryopreserved CD4+ T Cells (Lonza) were thawed according to the manufacturer's recommendations and plated either in Lymphocyte Growth Medium-3 (LGM-3) or X-VIVO 20 media (Lonza) in 96-well tissue culture plates at a density of ˜2×10^5 cells per well, and allowed to recover for approximately 4 hours at 37° C. with 5% CO2 in a humidified atmosphere. After the recovery step, DMSO (vehicle) or test compound at doses ranging from 2 to 500 nM or 4 to 1000 nM in a three-fold dilution series was added to the cells. Three replicate wells were tested for each treatment condition. Final DMSO concentration in each well was 0.1%. Immediately after treatment, CD4+ T cells were activated by adding Dynabeads Human T-Activator CD3/CD28 (Life Technologies; bead-to-cell ratio of 1:2.5) and differentiated into Th17 cells by adding a mixture of the following cytokines: transforming growth factor-β (TGF-β, 5 ng/mL), IL-6 (20 ng/mL), IL-23 (20 ng/mL), and IL-1β (10 ng/mL). Undifferentiated control cells received only cytokine IL-2 (50 ng/mL). All human recombinant cytokines were purchased from R&D Systems. Following a 45-hour incubation at 37° C. with 5% CO2 in a humidified atmosphere, the plates were centrifuged for 3 minutes at 250×g, and half of the supernatant was transferred to anew plate to be used in the IL-17A assay (see below). Cell viability was assessed in the original plate using the CyQuant Direct Assay (Life Technologies). CyQuant reagent (an amount equal to 10% of remaining media volume) was added to the wells, and the plates were then incubated at 37° C. for 75 min. Fluorescence was read on a SpectraMax M2e spectrophotometer at 480 nm (excitation) and 535 nm (emission) wavelengths. CyQuant values from test compound samples were normalized to those from DMSO-treated samples. The concentration of IL-17A in the supernatant was measured using the Homogeneous Time-Resolved Fluorescence (HTRF) assay (Cisbio Bioassays) according to the manufacturer's protocol. The assay was performed at room temperature in low volume, solid white 384-well plates (Greiner Bio-One). Samples and standards (serially-diluted human recombinant IL-17A (0 to 5,000 pg/mL concentration range; Cisbio Bioassays) were incubated with the anti-human IL-17A antibody conjugates (the HTRF donor and acceptor pair) for 16 hours and fluorescence was measured using a Pherastar FS microplate reader (BMG Labtech) in the HTRF mode (excitation at 337 nm and emission at 665 nm and 620 nm). IL-17A levels were assessed in duplicate aliquots of supernatant from each well resulting in a total of six readings per test condition. The 665 nm/620 nm signal ratio was calculated and the concentration of IL-17A in each sample was determined by interpolation from the standard curve. The amount of IL-17A from test compound treated samples were normalized to that of the vehicle-treated samples, set to 100%. Data were analyzed using GraphPad Prism (GraphPad Software, La Jolla California USA). Concentrations of test compound were transformed by taking the logarithm of each concentration used. The IC50 values for compound-mediated reduction in IL-17A levels and cell viability were determined by non-linear regression analysis using the log(inhibitor) vs. normalized response with variable slope equation. Inhibition that is closely correlated with reduced viability is considered to be non-specific.

The subject of assay [3] is Nrf2 transcription factor. Description: AREc32 luciferase reporter assay. To be noted: Homo sapiens; AREc32 cells, 19 hours; concentration required to increase GST ARE luciferase reporter activity by 2-fold; read-out: NRF2 ARE 2-Fold (EC2×). From the text:
A. AREc32 Luciferase Reporter Assay
The AREc32 luciferase reporter assay allows for quantitative assessment of the endogenous activity of the Nrt2 transcription factor in cultured mammalian cells. AREc32 cells are derived from MCF-7 human breast carcinoma cells that were stably transfected with a reporter construct that contains the firefly luciferase gene located downstream of eight copies of the rat GSTA2 antioxidant response element (ARE) sequence (Wang et al., 2006; Concept Life Sciences Integrated Discovery and Development Services Ltd (CLSIDDS)). Active Nrf2 binds to the ARE sequences and increases expression of the firefly luciferase gene. To assess the Nrf2-activating potential of the test compounds, AREc32 cells were plated in black […] plates at a density of 20,000 cells per well in triplicate in DMEM+10% FBS+0.8 mg/mL Geneticin and incubated at 37° C. with 5% CO2 in a humidified atmosphere. The next day, cells were treated with DMSO (vehicle) or test compound (concentration ranges of 0.4-200 nM or 3.9-2000 nM) for 19 hours. Luciferase activity was determined using the ONE-Glo Luciferase assay (Promega). The luminescence signal was measured on a BMG Pherastar microplate reader. The mean luminescence value from test compound-treated wells was normalized to that from DMSO-treated wells and was represented as fold-induction. Data were analyzed using GraphPad Prism version 6.00 for Windows, GraphPad Software, La Jolla Calif. USA. A non-linear regression curve with log (agonist) vs. response using a variable slope was used to fit the data. Where applicable, a maximum threshold value of 50-fold over DMSO was set. EC2× values were interpolated from the curve. EC2× corresponds to the concentration of test compound required to increase GST ARE Luciferase reporter activity by 2-fold.

Turning to `C[C@H]1C(=O)C(C#N)=C[C@@]2(C)c3c(c(-c4ccccc4)nn3C3CCCCC3)CC[C@H]12` [T2], the results for the half-maximal inhibitory concentration (IC50) in assay [1] and in assay [2] were 0.098 µM and 0.083 µM, respectively. Further, the EC (2-fold) in assay [3] is 0.66 µM.

With `C[C@H]1C(=O)C(C#N)=C[C@@]2(C)c3c(c(-c4ccncn4)nn3-c3ccc(-c4ccccc4)nc3)CC[C@H]12` [T64], the IC50 in assay [1] worked out at 0.122 µM; in assay [2] it was 0.144 µM. For the same compound, the EC (2-fold) in assay [3] is 0.636 µM.

Turning to `C[C@H]1C(=O)C(C#N)=C[C@@]2(C)c3nn(-c4ccc(Cl)cc4)c(-c4ccccc4)c3CC[C@H]12` [T114], the values for the IC50 in assay [1] and in assay [2] were 0.106 µM and 0.507 µM, respectively. Moreover, in assay [3], the EC (2-fold) was 0.894 µM.

Consider `C[C@H]1C(=O)C(C#N)=C[C@@]2(C)c3c(c(-c4ccncc4)nn3-c3ccc(-c4ccccc4)cc3)CC[C@H]12` [T67], for which the IC50 came out at 0.049 µM in assay [1] and 0.026 µM in assay [2]. Also, the EC (2-fold) in assay [3] turned out to be 0.269 µM.

On to `COc1ccc(-c2ccc(-n3nc(-c4ccccc4)c4c3[C@]3(C)C=C(C#N)C(=O)[C@H](C)[C@H]3CC4)cc2)cc1` [T46], for which the results for the IC50 in assay [1] and in assay [2] were 0.065 µM and 0.02 µM, respectively. In addition, the EC (2-fold) in assay [3] was 0.219 µM.

Take `C[C@H]1C(=O)C(C#N)=C[C@@]2(C)c3c(c(-c4ccccc4)nn3-c3ccc(-c4ccccc4)cn3)CC[C@H]12` [T97]: the IC50 was 0.107 µM in assay [1] and 0.038 µM in assay [2]. Further, the EC (2-fold) in assay [3] came to 0.597 µM.

Turning to `Cc1cc(-c2ccc(-n3nc(-c4noc(C)n4)c4c3[C@]3(C)C=C(C#N)C(=O)[C@H](C)[C@H]3CC4)cc2)cnn1` [T110], the figures for the IC50 in assay [1] and in assay [2] were 0.193 µM and 0.126 µM, respectively. Further, the EC (2-fold) in assay [3] stood at 1.31 µM.

Consider `C[C@H]1C(=O)C(C#N)=C[C@@]2(C)c3c(c(-c4ccccc4)nn3-c3ccc(-c4ccc(CO)cc4)cc3)CC[C@H]12` [T42], for which the values for the IC50 in assay [1] and in assay [2] were 0.033 µM and 0.035 µM, respectively. The EC (2-fold) in assay [3] was found to be 0.13 µM.

As for `C[C@H]1C(=O)C(C#N)=C[C@@]2(C)c3c(c(-c4ccc(F)cc4)nn3-c3ccc(-c4cccnn4)cc3)CC[C@H]12` [T178], the IC50 is 0.064 µM in assay [1] and 0.031 µM in assay [2]. In addition, the EC (2-fold) in assay [3] stood at 0.342 µM.

For `Cc1ccc(-c2nn(-c3ccc(-c4ccccc4)cc3)c3c2CC[C@@H]2[C@@H](C)C(=O)C(C#N)=C[C@@]32C)cc1` [T69], the IC50 worked out at 0.142 µM in assay [1] and 0.012 µM in assay [2]. Besides, the EC (2-fold) in assay [3] stood at 0.38 µM.

For the compound `C[C@H]1C(=O)C(C#N)=C[C@@]2(C)c3nc(-c4cccc(-c5ccncc5)c4)n(-c4cnn(C)c4)c3CC[C@H]12` [T159], the IC50 was found to be 0.201 µM in assay [1] and 0.273 µM in assay [2]. Moreover, the EC (2-fold) in assay [3] came out at 1.08 µM.

Regarding `C[C@H]1C(=O)C(C#N)=C[C@@]2(C)c3nn(-c4ccncc4)c(-c4ccc(F)cc4)c3CC[C@H]12` [T122], the IC50 is 0.097 µM in assay [1] and 0.246 µM in assay [2]. Further, the EC (2-fold) in assay [3] worked out at 0.441 µM.

As for `Cc1ccccc1-n1nc(-c2ccccc2)c2c1[C@]1(C)C=C(C#N)C(=O)[C@H](C)[C@H]1CC2` [T17], the IC50 came to 0.077 µM in assay [1] and 0.094 µM in assay [2]. Also, in assay [3], the EC (2-fold) is 0.105 µM.

Turning to `C[C@H]1C(=O)C(C#N)=C[C@@]2(C)c3nn(-c4cccc(-c5ccccc5)c4)c(-c4cccc(F)c4)c3CC[C@H]12` [T126], the values for the IC50 in assay [1] and in assay [2] were 0.253 µM and 0.021 µM, respectively. For the same compound, in assay [3], the EC (2-fold) is 1.12 µM.

For the compound `C[C@H]1C(=O)C(C#N)=C[C@@]2(C)c3nn(Cc4ccccc4)c(-c4ccccc4)c3CC[C@H]12` [T4], the results for the IC50 in assay [1] and in assay [2] were 0.14 µM and 0.223 µM, respectively. Besides, the EC (2-fold) in assay [3] was 0.914 µM.

As for `C[C@H]1C(=O)C(C#N)=C[C@@]2(C)c3c(c(-c4ccccc4)nn3-c3cccc(-c4ccccc4)c3)CC[C@H]12` [T35], the values for the IC50 in assay [1] and in assay [2] were 0.129 µM and 0.058 µM, respectively. Further, the EC (2-fold) in assay [3] worked out at 0.328 µM.

Broadly, the IC50 is the concentration that gives 50% inhibition.
